What was measured:
[1] = system: MDA-MB231 breast cancer cells; assay: MDA-MB231 viability in conventional 2-D culture; format: cell-based, human
Description: For the drug testing studies, different doses of two frequently utilized chemotherapeutic drugs were first evaluated with regard to their ability to reduce breast cancer cell viability in conventional 2-D culture.
(§1) Consequently, all subsequent drug testing studies were performed with doxorubicin.

[2] = system: MDA-MB231 breast cancer cells; assay: Doxorubicin responsiveness in 3-D cultures within RGD-modified alginate gels versus 2-D monolayer; format: cell-based, human; details: 3-D cultures within RGD-modified alginate gels vs 2-D monolayer (FIG. 5C)
Description: To examine tumor malignancy and efficacy of anti-cancer drugs in response to enhanced mechanical stiffness, MDA-MB231 were incorporated in 3-D RGD-modified alginate cultures and were evaluated for proliferation, secretion of a molecular marker of enhanced malignancy (i.e., interleukin-8 (IL-8)), and drug responsiveness.
as §1

SMILES	MDA-MB231 viability in 2-D culture ([1]; high doses, 2-D culture (FIG. 5B, left panel))	efficacy of doxorubicin treatment in 3-D relative to 2-D conditions [2]	number of viable tumor cells in 2-D culture ([1]; 0.5 μM, 2-D culture (FIG. 5B, right panel))
N.N.[Cl][Pt][Cl] [cisplatin]	did not alter MDA-MB231 viability		
COc1cccc2c1C(=O)c1c(O)c3c(c(O)c1C2=O)C[C@@](O)(C(=O)CO)C[C@@H]3O[C@H]1C[C@H](N)[C@H](O)[C@H](C)O1 [doxorubicin]		3-D micro-environmental conditions dramatically-reduce the efficacy of doxorubicin treatment relative to 2-D conditions	efficiently reduced the number of viable tumor cells

— patent publication US9097702B2, “Pathologically relevant tumor microenvironments for high-throughput drug screening” (Cornell University, priority 2008, dated 2015)
